We go through one compound from patent US11136370B2, “Compositions and methods for thrombin generation assay” (The Scripps Research Institute, priority 2016, dated 2021).

One data set has as its target T1, nascent TF-FVIIa-FXa (Homo sapiens, UniProt P00742).
T1 construct: purchased Haematologic Technologies (FX); Siemens Healthcare Diagnostics (rTF); FVIIa made in house
The data set can be described thus: FVIII activation (FVIIIa generation, WB) by nascent FXa generated by TF-FVIIa. Format: biochemical. Conditions: for effect on FVIII activation by nascent FXa generated by TF-FVIIa: therapeutic concentrations, 50-450 nM.

For data set [1], the target named is FXa generated by Russel's viper venom (RVV) FX activator (Homo sapiens, UniProt P00742). Nature of the data set: FVIII activation by FXa generated by Russel's viper venom FX activator. Format: biochemical.
FXa generated by Russel's viper venom (RVV) FX activator, sequence (P00742 41-179 limits assumed): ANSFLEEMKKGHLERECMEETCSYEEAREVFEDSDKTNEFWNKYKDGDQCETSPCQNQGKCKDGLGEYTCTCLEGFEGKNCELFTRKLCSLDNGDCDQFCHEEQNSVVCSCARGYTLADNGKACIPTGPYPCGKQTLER
FXa generated by Russel's viper venom (RVV) FX activator, sequence (P00742 235-488 limits assumed): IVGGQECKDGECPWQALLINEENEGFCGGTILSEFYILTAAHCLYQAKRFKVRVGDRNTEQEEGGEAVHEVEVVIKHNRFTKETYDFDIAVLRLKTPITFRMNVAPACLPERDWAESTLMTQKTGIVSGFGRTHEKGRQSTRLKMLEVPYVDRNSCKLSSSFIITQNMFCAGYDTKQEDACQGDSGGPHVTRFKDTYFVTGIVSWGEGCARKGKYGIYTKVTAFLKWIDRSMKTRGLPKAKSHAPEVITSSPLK
Experimental: Thrombin was quantified with a fluorogenic substrate for calculation of % inhibition. […] Reactions were initiated by 100 pM FXa with 50 pM rTF as the phospholipid surface (top); or the preformed complex of 50 pM TF, 100 pM iFVIIa, 100 pM FXa, 5 nM NAPc2 (middle); or 50 pM TF/200 pM FVIIa/135 nM FX (bottom) in mixtures of 0.7 nM FVIII, 3 nM FV, 200 nM lepirudin, 10 nM TFPI, and 2.5 mM CaCl2 incubated for 120 s at 37° C. […] Endogenous thrombin potential (ETP, right) was calculated from the area under the TG curve (n=2).
In some experiments, prothrombin was omitted from reactions and 200 nM lepirudin was added to inactivate potentially contaminating thrombin. […] A stable complex with FXa as the only active protease was prepared with 50 pM rTF, 100 pM FVIIa-S195A (iFVIIa), 100 pM FXa and 5 nM NAPc2 incubated for 120 s at 37° C. FVIII activation by this complex was examined in reactions including FVIII, FV and lepirudin incubated for 120 s.
In another data set the target is T2, FXa WT (Homo sapiens, UniProt P00742).
T2 construct: TF-associated FVIIa has converted FX into FXa active protease
T2 sequence (P00742 41-179 limits assumed): as the sequence (P00742 41-179 limits assumed) above
T2 sequence (P00742 235-488 limits assumed): as the sequence (P00742 235-488 limits assumed) above
Nature of the data set: FVIIIa generation by FXa WT in stable complex with TF-iFVIIa-NAPc2. Type of data set: biochemical. Conditions: 1 nM rivaroxaban.

In data set [2] the target is T3, ternary TF-FVIIa-FXa complex (Homo sapiens, UniProt P00742).
T3 construct: purchased Haematologic Technologies (FX); Siemens Healthcare Diagnostics (rTF); FVIIa made in house
T3 sequence (P00742 41-179 limits assumed): as the sequence (P00742 41-179 limits assumed) above
T3 sequence (P00742 235-488 limits assumed): as the sequence (P00742 235-488 limits assumed) above
The data set can be described thus: FV activation (FVa generation, WB) by TF-FVIIa with FX. Format: biochemical. The conditions noted are these: clinically relevant concentrations.
Experimental: (A) Phospholipid-free assay of FX (1 μM) to FXa conversion by the complex of 2 μM soluble rTF with 10 nM FVIIa WT, T99Y or E154A. (B) FXa generation by 50 pM phospholipid-reconstituted rTF with 200 pM FVIIa WT, T99Y or E154A added to 135 nM FX, 0.7 nM FVIII, 3 nM FV and 200 nM lepirudin (2 min, n=2-3; 4 min, n=4-5; 6 min, n=6-9). (C) WB (representing 2) of FVIII activation in reactions of 50 pM TF, 200 pM FVIIa WT or mutants, 0.7 nM FVIII, 3 nM FV and 200 nM lepirudin without/with 135 nM FX, incubated for 120 s at 37° C. […] (E) FXa generation measured in reactions as in (D) without TFPIα and in the presence of 10 nM FIXa (left, incubation 180 s; n=5-6 except=2 for E154A) or 90 nM FIX (right, incubation for 360 s; n=5-6). […] Differences were evaluated by the ANOVA/Tukey test; results at 4 and 6 min in (B) and in reactions with FIX in (E, right) were analyzed after transformation as y=log 10 y (**P<0.01, ***P<0.001).
Time-course (mean±SEM) of 1 μM FX activation by 2 μM phospholipid-free soluble recombinant TF with 10 nM FVIIa WT (n=4-7), T99Y (n=2-3) or E154A mutants (n=3-4); incubation at 37° C. […] FVIIIa activity (25th-75th percentile bars, min to max whiskers, line at the median) generated as in (B), but without TFPIα, measured as FXa produced by 10 nM FIXa (n=9 for FVIIa WT and T99Y; n=5 for E154A). **P<0.01, ***P<0.001) by ANOVA/Tukey tests. […]

The test system of the next data set is thrombin generation (TG). Nature of the data set: TG in reactions with purified components (FVIIa, FIXa, rTF, FX, FV, prothrombin, TFPIα). Conditions: therapeutic doses. Type of data set: biochemical, human.
Data set [3] concerns fibrillar collagen type I. Nature of the data set: Blood perfusion over fibrillar collagen type I, volume of platelet aggregates and fibrin. Format: cell-based, human. The conditions noted are these: blood of treated patients, collagen surface. The protocol:
The volume of platelet aggregates and deposited fibrin was measured by confocal microscopy. Statistical analysis by one-way ANOVA and Tukey post-test. *P<0.05; **P<0.01; ***P<0.001.
Glass coverslips treated with 0.2 mg/ml poly-L-lysine for 6 h at 37° C. were coated with rTF for 18-20 hours at 37° C. or 2.5 mg/ml acid-insoluble type I collagen for 2 hours at 22-25° C. Then they were rinsed with pH 7.4 buffered-saline, assembled in a rectangular flow chamber with a 125 μm-high silicon gasket and positioned on a confocal microscope stage for analysis. Venous blood for testing was collected into final 10.9 mM trisodium citrate using a plastic syringe for normal volunteers or Vacutainer tubes (Becton Dickinson, Buccinasco, Milan) for patients and controls. Before perfusion at a flow rate yielding an initial wall shear rate of 300 s^−1 maintained with a syringe pump (Harvard Apparatus, Holliston, Mass.), CaCl2 was added to obtain 1.29 mM Ca^2+. In the blood of patients—potentially hypercoagulable—and related controls, lepirudin (50 nM) was also added to neutralize thrombin possibly generated before testing. […] For experiments with WT and mutant FVIIa, cells from group O citrated blood, containing 50 μg/ml CTI and 10 U/ml (ADPase activity) apyrase, were washed free of plasma by sequential centrifugation steps at 1500 g for 7 min. After the first, plasma was replaced with an equal volume of calcium-free Tyrode buffer, pH 6.5, with 5 U/ml apyrase; then with buffer and 1.25 U/ml apyrase; and finally with human FVII deficient plasma (George King Bio-Medical, Overland Park, Kans.) up to the original blood volume. […] Experiments in Milan (Italy) were performed with a Leica TCS SP5 microscope and HCX PL APO 63x/1.40 NA oil immersion objective (Leica Microsystems GmbH, Wetzlar, Germany); in La Jolla (California) with a Zeiss Axiovert 135M/LSM 410 and Plan-Apochromat 40x/1.40 NA oil immersion objective (Carl Zeiss AG, Oberkochen, Germany).
Platelets adhering and aggregating onto the surface were visualized by adding quinacrine-HCl (mepacrine; 10 μg/ml; Sigma-Aldrich) to blood. Deposited fibrin was visualized with Alexa Fluor 546-labeled (Invitrogen) mouse monoclonal IgG (50 μg/ml) specific for the B chain of mouse and human fibrin (HB-8545; ATCC). […] This was followed by buffer (DMEM) for 2 minutes to facilitate fibrin quantification by confocal z section analysis using a Zeiss Axiovert 135M/LSM 410 microscope (Carl Zeiss) and Plan-Apochromat×63/1.40 NA oil immersion objective. […] Deposited fibrin volume was measured from confocal sections collected at 4 preset positions in the flow chamber. Total volume of deposited platelets and fibrin was calculated from the sum of the respective area coverage per section multiplied by the z interval (2 μm). […]

A short description of data set [4]: Plasma concentration in treated patients. Type of data set: in vivo. The conditions noted are these: human, oral, n=10, 2 hours after drug intake.
The conditions of data set [5]: full anticoagulant dosage; cited from earlier work.

Entries after “also recorded” stand apart in the source; their conditions may differ.

T1 sequence (P00742 41-179 limits assumed): as the sequence (P00742 41-179 limits assumed) above
T1 sequence (P00742 235-488 limits assumed): as the sequence (P00742 235-488 limits assumed) above
Experimental for nascent TF-FVIIa-FXa: (§1) Thrombin was quantified with a fluorogenic substrate for calculation of % inhibition. […] Reactions were initiated by 100 pM FXa with 50 pM rTF as the phospholipid surface (top); or the preformed complex of 50 pM TF, 100 pM iFVIIa, 100 pM FXa, 5 nM NAPc2 (middle); or 50 pM TF/200 pM FVIIa/135 nM FX (bottom) in mixtures of 0.7 nM FVIII, 3 nM FV, 200 nM lepirudin, 10 nM TFPI, and 2.5 mM CaCl2 incubated for 120 s at 37° C. […] (n=3-4). […] Endogenous thrombin potential (ETP, right) was calculated from the area under the TG curve (n=2). Results in (E) and (F) are shown as 25th-75th percentile bars with min to max whiskers or min to max bars (when n≤3) with a line at the median. Differences were evaluated with the ANOVA/Tukey test (performed after log 10 transformation of the data shown in E); *P<0.05, ***P<0.001.
(A) WB analysis (representing 3) of the effect of anti-FVIIa MoAbs 3G12 and 12C7 (20 μg/ml) on TF-dependent FVIIIa generation after 120 s in reactions including 50 pM TF, 200 pM FVIIa, 135 nM FX, 3.5 nM FVIII, 3 nM FV and 200 nM lepirudin; quantification as in FIG. 4E. […] Reactions contained 50 pM TF, 200 pM FVIIa, 0.7 nM FVIII, 3 nM FV, 135 nM FX, 10 nM TFPI, 200 nM lepirudin and 2.5 mM CaCl2; anti-FVIIa MoAbs or control mouse IgG were at 20 μg/ml; the function-blocking anti-FVIII MoAb 8D4 was at 8 μg/ml. (C) Effect of anti-FVIIa MoAbs 3G12 and 12C7 (20 μg/ml), without or with anti-FVIII MoAb 8D4 (8 μg/ml) or anti-FXI MoAb O1A6 (20 μg/ml), on TG in normal PRP. […] Results in (B) and (D) are shown as 25th-75th percentile bars with min to max whiskers or min to max bars (when n≤3) with a line at the median. Differences were evaluated by a two-tailed t-test with Welch correction (A) or the ANOVA/Tukey test (B and D). *P<0.05, **P<0.01, ***P<0.001.
Coagulation reaction products were separated by reducing sodium dodecyl sulfate-polyacrylamide gel electrophoresis (SDS-PAGE), except for the analysis of FVIII activation in the presence of anti-FVIIa MoAbs that was performed under non-reducing conditions. After transfer to a polyvinylidene fluoride membrane, blots were probed with MoAb C5, biotinylated or not (0.5 μg/ml), for FVIII activation; MoAb AHV-5146 (1 μg/ml) for FV. Quantitative infrared detection of FVIIIa and FVa was obtained with IRDye 800CW-conjugated anti-mouse IgG or streptavidin followed by analysis with the Odyssey infrared imager (Li-COR, Lincoln, Nebr.). Concentrations were calculated by calibration with known quantities of FVIIIa and FVa.
The synthetic reaction mixtures comprised 0.7 nM FVIII, 3 nM FV, 135 nM FX, 104 prothrombin in 50 mM Tris-buffered saline, pH 7.4, with 0.1% BSA. […] Reactions to prevent thrombin effects were carried out in the presence of 200 nM lepirudin or 4 μM DAPA. Reactions were initiated by adding 0.6 to 400 pM rTF, 200 to 500 pM FVIIa or/and 10 nM FIXa, followed by 2.5 mM CaCl2 and incubation at 37° C. for the indicated times. 10 mM EDTA was then added to quench the reaction. Generation of FXa, FIIa and thrombin were evaluated by measuring amidolytic activity toward the chromogenic substrate S-2765 (180 μM; N-α-benzyloxycarbonyl-D-arginyl-L-glycyl-L-arginine-p-nitroaniline; DiaPharma, West Chester, Ohio) and the fluorogenic substrate Z-Gly-Gly-Arg-AMC (360 μM) respectively.
Experimental for thrombin generation (TG): as §1
The synthetic reaction mixtures comprised 0.7 nM FVIII, 3 nM FV, 135 nM FX, 104 prothrombin in 50 mM Tris-buffered saline, pH 7.4, with 0.1% BSA. […] Reactions to prevent thrombin effects were carried out in the presence of 200 nM lepirudin or 4 μM DAPA. […] Generation of FXa, FIIa and thrombin were evaluated by measuring amidolytic activity toward the chromogenic substrate S-2765 (180 μM; N-α-benzyloxycarbonyl-D-arginyl-L-glycyl-L-arginine-p-nitroaniline; DiaPharma, West Chester, Ohio) and the fluorogenic substrate Z-Gly-Gly-Arg-AMC (360 μM) respectively.

For the compound `O=C(NC[C@H]1CN(c2ccc(N3CCOCC3=O)cc2)C(=O)O1)c1ccc(Cl)s1` [Rivaroxaban], the FVIIIa generation entry on nascent TF-FVIIa-FXa (500 nM rivaroxaban) was “sustained”. Moreover, at nascent TF-FVIIa-FXa (TFPI and rivaroxaban combined, rivaroxaban as high as 450 nM, lepirudin present), the “FVIIIa generation, coagulation initiated by FVIIa” value is listed as “substantial FVIIIa generation”. In addition, the “effect on FVIII activation by nascent FXa generated by TF-FVIIa” value at nascent TF-FVIIa-FXa is “only marginally affected”. Besides, the “effect on FVIII activation by nascent FXa generated by TF-FVIIa” value on nascent TF-FVIIa-FXa (listed as rivaroxaban) is reported as “minimally affected; also recorded: only marginally reduced”. In addition, the “FVIIIa generation, initiator RVV-X” value in data set [1] (TFPI and rivaroxaban combined, rivaroxaban as high as 450 nM) is reported as “substantial inhibition”. Moreover, the “effect on FVIII activation by RVV-generated FXa” value in data set [1] (equivalent FXa levels as with TF-FVIIa) is “inhibited”. Further, at FXa WT, the “effect on FVIII activation by FXa WT” value is “almost completely inhibited”. In data set [2], the “effect on FVa generation by the ternary TF-FVIIa-FXa complex” value is on record as “blocked”. Moreover, the “effect on TG initiated by TF alone in reactions containing FIXa without FVIII” value in the data set on thrombin generation (TG) was “inhibited”. In addition, in data set [3], the “mean volume of platelet aggregates vs controls” value is “not significantly different” and the “volume of deposited fibrin vs controls” value is listed as “not significantly decreased; also recorded: not significantly different from normal”. Moreover, in data set [4], the concentration at 2 h came to 312 nM. The peak plasma concentration in data set [5] was 500 nM.
